Source: ChEMBL document CHEMBL4765457, “Targeting dual tolerant regions of binding pocket: Discovery of novel morpholine-substituted diarylpyrimidines as potent HIV-1 NNRTIs with significantly improved water solubility” (Eur J Med Chem, 2020)
≈ marks a conversion by molar mass, not a printed value.

Experiments:
[1] = test system: Human immunodeficiency virus 1; assay: Antiviral activity against HIV1 3B infected in human MT4 cells assessed as virus-induced cytopathic effect incubated for 5 days by MTT assay; format: functional, organism-based; conditions: Human immunodeficiency virus 1, 3B, MT4, 120 h
[2] = test system: Human immunodeficiency virus 1; assay: Antiviral activity against HIV1 RES056 infected in human MT4 cells assessed as inhibition of virus-induced cytopathic effect incubated for 5 days by MTT assay; format: functional, organism-based; conditions: Human immunodeficiency virus 1, RES056, MT4, 120 h
[3] = Cytotoxicity against human MT4 cells assessed as reduction in cell viability incubated for 5 days by MTT assay; format: cell-based; conditions: time 5 day
[4] = Selectivity index, ratio of CC50 for human MT4 cells to EC50 for antiviral activity against HIV1 3B infected in human MT4 cells; format: toxicity, cell-based; conditions: read-out: Ratio CC50/EC50
[5] = Selectivity index, ratio of CC50 for human MT4 cells to EC50 for antiviral activity against HIV1 RES056 infected in human MT4 cells; format: toxicity, cell-based; conditions: read-out: Ratio CC50/EC50
[6] = test system: Human immunodeficiency virus 1; assay: Antiviral activity against HIV1 harboring RT L100I mutant infected in human MT4 cells assessed as inhibition of virus-induced cytopathic effect incubated for 5 days by MTT assay; format: functional, organism-based; conditions: Human immunodeficiency virus 1, MT4, 120 h
[7] = test system: Human immunodeficiency virus 1; assay: Antiviral activity against HIV1 harboring RT K103N mutant infected in human MT4 cells assessed as inhibition of virus-induced cytopathic effect incubated for 5 days by MTT assay; format: functional, organism-based; conditions: Human immunodeficiency virus 1, MT4, 120 h
[8] = test system: Human immunodeficiency virus 1; assay: Antiviral activity against HIV1 harboring RT Y181C mutant infected in human MT4 cells assessed as inhibition of virus-induced cytopathic effect incubated for 5 days by MTT assay; format: functional, organism-based; conditions: Human immunodeficiency virus 1, MT4, 120 h
[9] = test system: Human immunodeficiency virus 1; assay: Antiviral activity against HIV1 harboring RT Y188L mutant infected in human MT4 cells assessed as inhibition of virus-induced cytopathic effect incubated for 5 days by MTT assay; format: functional, organism-based; conditions: Human immunodeficiency virus 1, MT4, 120 h
[10] = test system: Human immunodeficiency virus 1; assay: Antiviral activity against HIV1 harboring RT E138K mutant infected in human MT4 cells assessed as inhibition of virus-induced cytopathic effect incubated for 5 days by MTT assay; format: functional, organism-based; conditions: Human immunodeficiency virus 1, MT4, 120 h
[11] = test system: Human immunodeficiency virus 1; assay: Antiviral activity against HIV1 harboring RT F227L/V106Amutant infected in human MT4 cells assessed as inhibition of virus-induced cytopathic effect incubated for 5 days by MTT assay; format: functional, organism-based; conditions: Human immunodeficiency virus 1, MT4, 120 h
[12] = test system: Human immunodeficiency virus 1; assay: Potency index, ratio of nevirapine EC50 to test compound EC50 for antiviral activity against HIV1 harboring K103N mutant infected in human MT4 cells; format: functional
[13] = test system: Human immunodeficiency virus 1; assay: Potency index, ratio of lamivudine EC50 to test compound EC50 for antiviral activity against HIV1 harboring K103N mutant infected in human MT4 cells; format: functional
[14] = Resistance index, ratio of EC50 for antiviral activity against HIV1 expressing RT L100I mutant infected in human MT4 cells to EC50 for antiviral activity against HIV1 3B infected in human MT4 cells; format: functional
[15] = Resistance index, ratio of EC50 for antiviral activity against HIV1 expressing RT K103N mutant infected in human MT4 cells to EC50 for antiviral activity against HIV1 3B infected in human MT4 cells; format: functional
[16] = Resistance index, ratio of EC50 for antiviral activity against HIV1 expressing RT Y181C mutant infected in human MT4 cells to EC50 for antiviral activity against HIV1 3B infected in human MT4 cells; format: functional
[17] = Resistance index, ratio of EC50 for antiviral activity against HIV1 expressing RT Y188L mutant infected in human MT4 cells to EC50 for antiviral activity against HIV1 3B infected in human MT4 cells; format: functional
[18] = Resistance index, ratio of EC50 for antiviral activity against HIV1 expressing RT E138K mutant infected in human MT4 cells to EC50 for antiviral activity against HIV1 3B infected in human MT4 cells; format: functional
[19] = Resistance index, ratio of EC50 for antiviral activity against HIV1 expressing RT F227L/V106A mutant infected in human MT4 cells to EC50 for antiviral activity against HIV1 3B infected in human MT4 cells; format: functional
[20] = Inhibition of HIV1 reverse transcriptase assessed as reduction in biotin-dUTP incorporation into template preincubated for 1 hr followed by template/primer and dNTP addition and measured after 1 hr by ELISA; set-up: species or system Human immunodeficiency virus 1
[21] = Solubility of compound in water at pH 7.4; format: physicochemical
[22] = Solubility of compound in water at pH 7; format: physicochemical
[23] = Solubility of compound in water at pH 2; format: physicochemical
[24] = test system: Human immunodeficiency virus 1; assay: Potency index, ratio of lamivudine EC50 to test compound EC50 for antiviral activity against HIV1 3B infected in human MT4 cells; format: functional
[25] = test system: Human immunodeficiency virus 1; assay: Potency index, ratio of zidovudine EC50 to test compound EC50 for antiviral activity against HIV1 3B infected in human MT4 cells; format: functional

Compound | EC50 [1] [nM] | EC50 [2] [µM] | CC50 at 120 h [3] [µM] | selectivity ratio [4] | selectivity ratio [5] | EC50 [6] [µM] | EC50 [7] [nM] | EC50 [8] [µM] | EC50 [9] [µM] | EC50 [10] [nM] | EC50 [11] [µM] | Ratio EC50 [14] | Ratio EC50 [15] | Ratio EC50 [16] | Ratio EC50 [17] | Ratio EC50 [18] | Ratio EC50 [19] | IC50 [20] [nM] | solubility [21] [µg/mL] | solubility [22] [µg/mL] | further results
Cc1cc(C#N)cc(C)c1Oc1nc(NC2CCN(CCN3CCOCC3)CC2)nc2cc(F)ccc12 | 241 | > 16.9 | 16.9 | 70 | < 1 | 1.24 | 522 | 1.35 | 2.4 | 963 | 2.92 | 5.1 | 2.2 | 5.6 | 10 | 4 | 12.1 | – | – | – | Ratio EC50 [12]: 10; Ratio EC50 [13]: 8
Cc1cc(C#N)cc(C)c1Oc1nc(NC2CCN(CCN3CCOCC3)CC2)nc2ccsc12 | 87 | > 36.8 | 36.8 | 423 | < 1 | 8.7 | 1040 | 8.35 | 9.39 | 437 | 7.14 | 99.9 | 11.9 | 95.8 | 107.9 | 5 | 81.9 | 2530 | 15.6 (≈ 31.7 µM) | 24.4 (≈ 49.5 µM) | solubility [23]: 207 µg/mL (≈ 420 µM)
Cc1cc(C#N)cc(C)c1Oc1nc(NC2CCN(CCN3CCOCC3)CC2)nc2sccc12 | 65 | > 37.9 | 37.9 | 579 | < 1 | 14.7 | 610 | 6.9 | 45.2 | 586 | 18.7 | 224.5 | 9.3 | 105.5 | 690.6 | 9 | 285.5 | 2360 | 19.7 (≈ 40 µM) | 29.3 (≈ 59.5 µM) | solubility [23]: 243 µg/mL (≈ 493 µM)
Cc1cc(C#N)cc(C)c1Oc1nc(NC2CCN(CC(=O)N3CCOCC3)CC2)nc2c1SCC2 | 58 | > 38.6 | 38.6 | 663 | < 1 | 6.12 | 1280 | 5.45 | 5.21 | 1310 | > 38.6 | 105 | 21.9 | 93.5 | 89.4 | 22.6 | >662.9 | 3370 | 29.1 (≈ 57.2 µM) | 35.2 (≈ 69.2 µM) | Ratio EC50 [24]: <=87; Ratio EC50 [25]: 2.8; solubility [23]: 248 µg/mL (≈ 488 µM)
Cc1cc(C#N)cc(C)c1Oc1nc(NC2CCN(CC(=O)N3CCOCC3)CC2)nc2sccc12 | 82 | > 36.3 | 36.3 | 442 | < 1 | 3.67 | 1620 | 3.64 | 7.18 | 334 | 13.8 | 44.8 | 19.8 | 44.3 | 87.5 | 4.1 | 168 | 1490 | 27.6 (≈ 54.5 µM) | 34.2 (≈ 67.5 µM) | solubility [23]: 228 µg/mL (≈ 450 µM)
Cc1cc(C#N)cc(C)c1Oc1nc(Nc2ccc(C#N)cc2)nc(N)c1Br [ETRAVIRINE] | – | 0.038 | > 4.59 | > 1640 | > 122 | 0.005 | 3 | 0.014 | 0.014 | 7 | 0.018 | 1.9 | 1 | 4.9 | 4.9 | 2.6 | 6.3 | 59 | – | – | –
